Earlier results on three compounds are cited in patent US20070014819A1, “Method of emulsifying phytosterol by natural saponin,emulsion prepared thereby and water dispersible phytosterol powder product” (WECKTECK BIOTECHNOLOGY COMPANY LIMITED, priority 2005, published 2007).

The conditions of data set [1]: around the world.
For data set [2] the following is noted: administered orally directly.
For data set [3] the following is noted: purified.

Consider `COCc1c(C(C)C)nc(C(C)C)c(/C=C/[C@@H](O)C[C@@H](O)CC(=O)O)c1-c1ccc(F)cc1` [Baycol, cerivastatin], for which, in data set [1], the “people dead from the side effects” value is listed as “more than 100 people”.

Consider β-sitosterol [phytosterol], for which the “reduction of total cholesterol in blood” value in the data set on cholesterol in blood (daily intake of 1.4 g for one month) was “about 14%”. Besides, the “reduction of the concentration of LDL” value in the data set with cholesterol in blood (daily intake of more than 1.3 g, FDA article) was “effectively reduce”. The “absorption rate in a human body” value in data set [2] was “less than 5%”. For the same compound, the “solubility in water or oil and most solvents” value in data set [3] is recorded as “difficult to be dissolved”.

Consider `CC(C)CCC[C@@H](C)[C@H]1CC[C@H]2[C@@H]3CC=C4C[C@@H](O)CC[C@]4(C)[C@H]3CC[C@]12C` [cholesterol, reference compound], for which the “absorption rate in a human body” value in data set [2] is “more than 50%”.
